Source: patent US20070128217A1 (priority 2003, published 2007)

How the values were obtained:
[1] = tested on: control sera (pooled serum of ten healthy LUMC hospital workers; commercial negative donor pooled serum from the Dutch bloodbank); type: binding, human; set-up: Binding of Control serum LUMC to linear peptides / Binding of Control serum Blood-bank to linear peptides / Binding of Control serum LUMC to looped peptides / Binding of Control Serum Blood-Bank to Looped peptides / Binding of Control serum LUMC to linear peptides of the protein M of SARS-CoV Urbani / Binding of Control serum Blood-bank to linear peptides of the protein M of SARS-CoV Urbani / Binding of Control serum LUMC to looped peptides of the protein M of SARS-CoV Urbani / Binding of Control Serum Blood-Bank to Looped peptides of the protein M of SARS-CoV Urbani: unit not given here
[2] = tested on: recombinant human anti-SARS-CoV antibody 03-018; type: binding; set-up: Binding of antibody 03-018 to linear peptides of the N protein of SARS-CoV Urbani / Binding of antibody 03-018 to looped/cyclic peptides of the N protein of SARS-CoV Urbani: unit not given here
[3] = tested on: antibodies in sera from SARS patients (sera 1a, 1b, 2, 6, 37, 62, London, SARS-yellow, SARS-green); type: binding, human; set-up: Binding of serum 6 to linear peptides of protein X1 of SARS-CoV Urbani / Binding of serum 37 to linear peptides of protein X1 of SARS-CoV Urbani / Binding of serum 6 to looped/cyclic peptide (PEPSCAN-ELISA) / Binding of serum 37 to looped/cyclic peptide (PEPSCAN-ELISA) / Binding of serum 37 to looped/cyclic peptides of protein X1 of SARS-CoV Urbani / Binding of serum 6 to linear peptides of protein X2 / Binding of serum 37 to linear peptides of protein X2 / Binding of serum 37 to looped/cyclic peptides of protein X2 of SARS-CoV Urbani / Binding of serum 6 to linear peptides of protein M of SARS-CoV Urbani / Binding of serum 37 to linear peptides of protein M of SARS-CoV Urbani / Binding of serum 6 to looped/cyclic peptides of protein M of SARS-CoV Urbani / Binding of serum 37 to looped/cyclic peptides of protein M of SARS-CoV Urbani / Binding of serum 6 to linear peptides of protein X3 of SARS-CoV Urbani / Binding of serum 37 to linear peptides of protein X3 of SARS-CoV Urbani / Binding of serum 37 to looped/cyclic peptides of protein X3 of SARS-CoV Urbani / Binding of serum 6 to linear peptides of protein X4 of SARS-CoV Urbani / Binding of serum 37 to linear peptides of protein X4 of SARS-CoV Urbani / Binding of serum 37 to looped/cyclic peptides of protein X4 of SARS-CoV Urbani / Binding of serum 6 to linear peptides of protein X5 of SARS-CoV Urbani / Binding of serum 37 to linear peptides of protein X5 of SARS-CoV Urbani / Binding of serum 37 to looped/cyclic peptides of protein X5 of SARS-CoV Urbani / Binding of serum 6 to linear peptides of protein N of SARS-CoV Urbani / Binding of serum 37 to linear peptides of protein N of SARS-CoV Urbani / Binding of serum 6 to linear peptide (PEPSCAN-ELISA) / Binding of serum 1a to looped/cyclic peptides of protein N of SARS-CoV Urbani / Binding of serum 1b to looped/cyclic peptides of protein N of SARS-CoV Urbani / Binding of serum 2 to looped/cyclic peptides of protein N of SARS-CoV Urbani / Binding of serum 6 to looped/cyclic peptides of protein N of SARS-CoV Urbani / Binding of serum 37 to looped/cyclic peptides of protein N of SARS-CoV Urbani / Binding of serum 62 to looped/cyclic peptides of protein N of SARS-CoV Urbani / Binding of serum London to looped/cyclic peptides of protein N of SARS-CoV Urbani / Binding of serum SARS-green to looped/cyclic peptides of protein N of SARS-CoV Urbani: unit not given here
[4] = tested on: rabbit serum obtained by immunizing a rabbit with the SARS-CoV strain Frankfurt 1; type: binding; set-up: Binding of a rabbit serum to linear peptides / Binding of a rabbit serum to looped peptides / Rabbit serum linear peptides / Rabbit serum looped peptides / Binding of a rabbit serum to linear peptides of protein N of SARS-CoV Urbani (Rabbit serum linear peptides) / Binding of a rabbit serum to looped/cyclic peptides of protein N of SARS-CoV Urbani (Rabbit serum looped peptides): unit not given here

| Sequence | Control Serum Blood-Bank Looped peptides [1] | Control serum Blood-bank linear peptides [1] | Control serum LUMC linear peptides [1] | Control serum LUMC looped peptides [1] | Binding of antibody 03-018 to linear peptides of the N protein of SARS-CoV Urbani [2] | Binding of antibody 03-018 to looped/cyclic peptides of the N protein of SARS-CoV Urbani [2] | Binding of serum 1a to linear peptides of protein N of SARS-CoV Urbani [3] | Binding of serum 1a to looped/cyclic peptides of protein N of SARS-CoV Urbani [3] | Binding of serum 1b to linear peptides of protein N of SARS-CoV Urbani [3] | Binding of serum 1b to looped/cyclic peptides of protein N of SARS-CoV Urbani [3] | Binding of serum 2 to linear peptides of protein N of SARS-CoV Urbani [3] | Binding of serum 2 to looped/cyclic peptides of protein N of SARS-CoV Urbani [3] | Binding of serum 6 to looped/cyclic peptides of protein N of SARS-CoV Urbani [3] | Binding of serum 37 to looped/cyclic peptides of protein N of SARS-CoV Urbani [3] | Binding of serum 62 to looped/cyclic peptides of protein N of SARS-CoV Urbani [3] | Binding of serum London to looped/cyclic peptides of protein N of SARS-CoV Urbani [3] | Binding of serum SARS-green to looped/cyclic peptides of protein N of SARS-CoV Urbani [3] | Binding of serum SARS-yellow to looped/cyclic peptides of protein N of SARS-CoV Urbani [3] | Binding of a rabbit serum to linear peptides of protein N of SARS-CoV Urbani (Rabbit serum linear peptides) [4] | Binding of a rabbit serum to looped/cyclic peptides of protein N of SARS-CoV Urbani (Rabbit serum looped peptides) [4] | other results |
| --- | --- | --- | --- | --- | --- | --- | --- | --- | --- | --- | --- | --- | --- | --- | --- | --- | --- | --- | --- | --- | --- |
| GMEVTPSGTWLTYHG | 0.7 | 0.6 | 0.6 | 0.7 | 0.1 | 0.2 | 0.3 | 0.4 | 0.1 | 0.2 | 0.1 | 0.4 | 0.3 | 0.7 | 0.8 | 0.5 | 0.4 | 0.5 | 0.1 | 0.4 | Binding of serum 6 to linear peptides of protein N of SARS-CoV Urbani [3]: 0.2; Binding of serum 37 to linear peptides of protein N of SARS-CoV Urbani [3]: 0.5; Binding of serum 62 to linear peptides of protein N of SARS-CoV Urbani [3]: 0.6; Binding of serum London to linear peptides of protein N of SARS-CoV Urbani [3]: 0.5; Binding of serum SARS-green to linear peptides of protein N of SARS-CoV Urbani [3]: 0.2; Binding of serum SARS-yellow to linear peptides of protein N of SARS-CoV Urbani [3]: 0.7 |
| GMSRIGMEVTPSGTW | 0.6 | 0.6 | 0.6 | 0.5 | 0.1 | 0.2 | 0.3 | 0.3 | 0.1 | 0.2 | 0.2 | 0.3 | 0.2 | 0.5 | 0.5 | 0.4 | 0.3 | 0.5 | 0.1 | 0.4 | Binding of serum 6 to linear peptides of protein N of SARS-CoV Urbani [3]: 0.2; Binding of serum 37 to linear peptides of protein N of SARS-CoV Urbani [3]: 0.7; Binding of serum 62 to linear peptides of protein N of SARS-CoV Urbani [3]: 0.7; Binding of serum London to linear peptides of protein N of SARS-CoV Urbani [3]: 0.5; Binding of serum SARS-green to linear peptides of protein N of SARS-CoV Urbani [3]: 0.5; Binding of serum SARS-yellow to linear peptides of protein N of SARS-CoV Urbani [3]: 0.7 |
| GNFGDQDLIRQGTDY |  |  |  |  | 0.1 | 0.2 |  | 0.5 |  | 0.3 |  | 0.5 | 0.3 | 0.8 | 0.8 | 0.5 | 0.7 | 0.6 | 0.2 | 0.5 | Binding of Control Serum Blood-Bank to Looped peptides [1]: 0.9; Binding of Control serum Blood-bank to linear peptides [1]: 0.7; Binding of Control serum LUMC to linear peptides [1]: 0.6; Binding of Control serum LUMC to looped peptides [1]: 0.9; Binding of serum 1a to linear peptide (PEPSCAN-ELISA) [3]: 0.3; Binding of serum 1b to linear peptide (PEPSCAN-ELISA) [3]: 0.2; Binding of serum 2 to linear peptide (PEPSCAN-ELISA) [3]: 0.2; Binding of serum 6 to linear peptide (PEPSCAN-ELISA) [3]: 0.2; Binding of serum 37 to linear peptide (PEPSCAN-ELISA) [3]: 0.8; Binding of serum 62 to linear peptide (PEPSCAN-ELISA) [3]: 0.7; Binding of serum London to linear peptide (PEPSCAN-ELISA) [3]: 0.6; Binding of serum SARS-green to linear peptide (PEPSCAN-ELISA) [3]: 0.5; Binding of serum SARS-yellow to linear peptide (PEPSCAN-ELISA) [3]: 0.8 |
| GNSPARMASGGGETA |  |  |  |  | 0.2 | 0.2 |  | 0.2 |  | 0.1 |  | 0.3 | 0.1 | 0.2 | 0.2 | 0.3 | 0.3 | 0.0 | 0.1 | 0.0 | Binding of Control Serum Blood-Bank to Looped peptides [1]: 0.5; Binding of Control serum Blood-bank to linear peptides [1]: 0.8; Binding of Control serum LUMC to linear peptides [1]: 0.7; Binding of Control serum LUMC to looped peptides [1]: 0.4; Binding of serum 1a to linear peptide (PEPSCAN-ELISA) [3]: 0.3; Binding of serum 1b to linear peptide (PEPSCAN-ELISA) [3]: 0.1; Binding of serum 2 to linear peptide (PEPSCAN-ELISA) [3]: 0.2; Binding of serum 6 to linear peptide (PEPSCAN-ELISA) [3]: 0.2; Binding of serum 37 to linear peptide (PEPSCAN-ELISA) [3]: 0.6; Binding of serum 62 to linear peptide (PEPSCAN-ELISA) [3]: 0.6; Binding of serum London to linear peptide (PEPSCAN-ELISA) [3]: 0.6; Binding of serum SARS-green to linear peptide (PEPSCAN-ELISA) [3]: 0.2; Binding of serum SARS-yellow to linear peptide (PEPSCAN-ELISA) [3]: 0.5 |
